From patent US10598667B2, “Functional illumination in living cells” (The Regents of the University of California, priority 2013, dated 2020)
“Also recorded” adds a separate entry of the source. Like-named read-outs stand apart in the source and are kept apart here. Bridges are numbered along the chain shown (N, C = ends). Where no end group is shown, it is not given here. [ ]: non-standard residue; d: D form. pY = N[C@@H](Cc1ccc(OP(=O)(O)O)cc1)C(=O)O

What was measured:
[1] = Sequential screening of PDMS affixed OBOC bead array with three dyes; type: binding; settings: 100 μM dye in PBS, three dyes incubated sequentially on the same bead array
Description: Silicon Elastomer Base was mixed completely with Silicone Elastomer Curing Agent at ratio 10:1 in volume and the solution was kept in vacuum container for 15 to 20 minutes to eliminate the gas bubbles formed during the mixing process. After the removal of all residual bubbles, approximately 0.5-1 mL of PDMS solution was added into the bottom of a 60 mm culture dish. The dish was then spun on a single wafer spin processor (Laurell Technologies Corporation®, model WS-6505-6NPP/Lite) to evenly distribute the solution over the plates, at a speed of 4000 rpm for 30 s. A 5 μm layer of PDMS was formed on the bottom of dish and was cured at 80° C. for 5 min or at room temperature for 24 hrs to allow for beads immobilization. Knowing that the PDMS coating was about 5 μm thick and the radius of bead was around 45 μm, the percentage of free bead surface area was estimated by the formula of [1-2πrh/4πr^2]×100% (h=thickness of PDMS layer; r=radius of bead) to be approximately 95%. The library beads resuspended in 70% ethanol solution were first randomly placed on the surface of a glass plate that was 10% smaller than the dish used in the experiment. After the ethanol evaporated, a syringe needle was used to adjust the dry beads to evenly redistribute beads on the glass surface. Then the dish was inverted and the PDMS layer was pressed down onto the glass plate with beads. The library beads were embedded partly inside the PDMS layer.
Dye solutions were prepared in PBS to a 100 μM final concentration and 5 mL of each dye solution were added into the 60 mm dish with beads. Three dyes were tested sequentially. The dish was kept swirling at 60 rpm on the rotator. The dye binding was monitored for 90 minutes, and then the dye solution was removed from the dishes and PBS was added to rinse the beads on the bottom to remove the color dye. The PBS solution was changed every 30 min and the dish was always swirled as above. The beads color change was also observed and recorded at certain time interval during the whole wash process to collect data of color dissociation. Before adding the next dye solution, beads were washed with 70% ethanol to completely remove residual dye and were rinsed with PBS solution three times afterwards.
A representative positive bead for each color was selected for the color binding and dissociation study. A series of images were taken at different time points during the binding and washing process. From the images taken, regions of interest (ROI) with the same size were picked up from the color beads and colorless control beads. The value from the control bead was subtracted from the color bead to get quantitated color value for each single color bead. The measure of the color intensity for each color dye was performed using the Kodak Image Station 2000MM.
The PDMS affixed bead array was incubated with three different dyes sequentially. […] Eleven beads were selected for further analysis based on their characteristic binding profiles (FIG. 2). […] The amino acid sequences of the peptides bound to the beads were determined (Table 1).

[2] = MG binding of peptide ligands from screening and their derivatives; design: key to MG binding: −: no binding; +: weak binding; ++: mild binding; +++: strong binding; ++++: very strong binding; settings: for MG binding: 11 hour incubation with 5 μM MG in PBS buffer (pH 7.4); for MG binding of phosphorylated form (in words): phosphorylated but not unphosphorylated form
[3] = Fluorescence titration of peptide in solution with MG, 2 mM Ca2+, 650 nm; type: binding
Description: Two peptides that can activate MG with or without calcium sensitivity were selected for further characterization. A solution form of the two peptides were synthesized and titrated with MG in the presence of 2 mM Ca^2+. Fluorescent signal at 650 nm was measured. […] Computational modeling confirmed stably folded structure of peptide 12 upon MG binding, preventing intramolecular motions of MG (FIG. 8B, FIG. 10A, B). […] The immobilized peptides on TentaGel beads were then titrated with an increasing amount of MG in the presence and absence of 2 mM Ca^2+. Fluorescent emission at 650 nm by each individual bead was measured. […] Computational modeling further confirmed that stably folded structure of peptide 2 only forms upon calcium binding (FIG. 11B).

[4] = Abltide motif OBOC library screening with MG before and after dephosphorylation; type: binding; settings: for Post-dephos fluorescent signal: after dephosphorylation (treatment with 50% HF); for Pre-dephos fluorescent signal: before dephosphorylation; for ΔF/F: pre- vs post-dephosphorylation
Description: Screening for Library category 2 (Table 2) necessitates that the entire OBOC bead library array be scanned with and without MG or other dyes, before and after PTM. Here, we will use c-src PTK as an example. We have previously reported the use of OBOC combichem and radiosubstrate screening method to identify an efficient and specific peptide substrate (YIYGSFK; SEQ ID NO:35) for c-src PTK. […] Recently, we prepared YIY(P)GSFKKKXn (SEQ ID NO:216) libraries (X=all 19 L-amino acids except Cys, n=6-9) and screened them against MG. After 1 hr incubation, near-infra-red image of the entire immobilized library was captured. The bead library was then thoroughly washed, and dephosphorylated with 50% HF. Beads that strongly fluoresce near infra-red before dephosphorylation but fluoresce weakly (or none) after dephosphorylation were selected as candidate GESIs for c-src PTK (Table 6). Of these 8 peptides isolated from screening ˜300,000 beads, 3 has 1 Trp, and the remaining 5 have no Trp. Work is currently underway to characterize their substrate efficiency and specificity biochemically in a cell-free system and subsequently inside living cells. In principle, using various dyes and PKs to screen OBOC libraries, we should be able to develop several GESIs against several PKs that can be multiplexed with different dyes in living cells. We have developed GESIs for one serine/threonine kinase (PKA), and two tyrosine kinases (c-src and bcr-abl). Very recently, we have designed another library with a c-abl motif (“Abltide”): EAIY(P)AAPFAKKXn (SEQ ID NO:217).
After screening about one million beads with MG, we identified four peptides that greatly activate MG in phosphorylated but not dephosphorylated form (Table 7). Photomicrograph of LLT4bead is shown in FIG. 21, with a marked decrease in fluorescent signal (relative arbitrary level of 1930 to 93 and a ΔF/F value of 19; see right columns of Table 7) after dephosphorylation (treatment with 50% HF). High consensus was observed. All 4 beads have a Tyr at X7, a negative-charged amino acid at X4, hydrophobic amino acids at X1, X6 and X8 (3 out 4 have Val at X6 and Tyr at X8). Three out four beads have a positive-charged amino acid at X2 position. To discover GESIs for PKA, we will include the known PKA substrate motif (RRX[S/T]; SEQ ID NO:223) into the OBOC libraries. In some libraries, the known kinase substrate motifs will be placed between two stretches of random residues. In some cases, we have found increased (instead of decrease) fluorescence after dephosphorylation. These peptides are potential leads for developing phosphatase sensors.

Q: For “CLSDEFC (not fully specified (bridges); cysteine pairing not given here; also: bead-bound) [Bead #11]”, which Dye binding ([1]; listed as # 11) is on record?
A: Malachite green

Q: And the Dye binding ([1]; listed as #11)?
A: only bind to malachite green; also recorded: bind only to malachite green

Q: Which results are given for “CQPDLTC (not fully specified (bridges); cysteine pairing not given here; also: bead-bound) [Bead #3]”?
A: Dye binding ([1]; listed as # 3): Malachite green; Dye binding ([1]; listed as #3): only bind to malachite green; also recorded: bind only to malachite green

Q: Which MG binding [2] does the source give for “3C (CDNYI[pY]GSFKNPWEWC; disulfide 1-16 (inferred)) [Peptide 3C]” here?
A: ++++

Q: Which MG binding [2] does the source give for “DSDSWGEYFHEE (synthetic genetically encoded small illuminant (GESI) malachite green (MG) binding Peptide 4)” here?
A: ++

Q: What about the “MG binding of phosphorylated form (in words)” value [2] of the same substance?
A: bound MG

Q: For DWWDWGNHGYTE [Peptide 12], which “Binding characteristics in solution studies” value [3] is on record?
A: strong binding characteristics

Q: What about the Kd ([3]; binding to MG, read-out: binding affinity) of the same substance?
A: 410 pM

Q: What about the Kd ([3]; peptide in solution, 2 mM Ca2+, one-site specific binding, read-out: Kd) of the same substance?
A: ~410 pM

Q: For “CMTQEAC (synthetic genetically encoded small illuminant (GESI) peptide of bead #8)”, which Dye binding ([1]; listed as # 8) is on record?
A: Malachite green

Q: What about the Dye binding ([1]; listed as #8) of the same substance?
A: only bind to malachite green; also recorded: bind only to malachite green

Q: For “CLMNKWC (not fully specified (bridges); cysteine pairing not given here; also: bead-bound) [Bead #2]”, which Dye binding ([1]; listed as #2) is on record?
A: bind to both indigo carmine and bromocresol purple

Q: For “CYKWWVC (synthetic genetically encoded small illuminant (GESI) peptide of bead #7)”, which Dye binding ([1]; listed as #7) is on record?
A: bind to both indigo carmine and bromocresol purple

Q: For “EAIY(P)AAPFAKKYYVSERKW (EAI[pY]AAPFAKKYYVSERKW) [LLT3]”, which Post-dephos fluorescent signal [4] is on record?
A: 63 relative arbitrary level

Q: What about the Pre-dephos fluorescent signal [4] of the same substance?
A: 835 relative arbitrary level

Q: What about the ΔF/F [4] of the same substance?
A: 12

Q: With “CEIHRIC (synthetic genetically encoded small illuminant (GESI) peptide of bead #9)” as the substance, how does the Dye binding ([1]; listed as # 9) read?
A: Bromocresol

Q: And the Dye binding ([1]; listed as #9)?
A: only bind to bromocresol purple; also recorded: bind only to bromocresol purple

Q: What does the source list for “EAIY(P)AAPFAKKLYIMDGWF (EAI[pY]AAPFAKKLYIMDGWF) [LLT4]”?
A: Post-dephos fluorescent signal [4]: 93 relative arbitrary level; Pre-dephos fluorescent signal [4]: 1930 relative arbitrary level; ΔF/F [4]: 19

Q: Which MG binding [2] does the source give for “2C (CDVYI[pY]GSFKNDYIC; disulfide 1-15 (inferred)) [Peptide 2C]” here?
A: ++++

Q: Which Dye binding ([1]; listed as # 6) does the source give for “CGNTEPC (synthetic genetically encoded small illuminant (GESI) peptide of bead #6)” here?
A: Malachite green

Q: What about the Dye binding ([1]; listed as #6) of the same substance?
A: only bind to malachite green; also recorded: bind only to malachite green

Q: With “5C (CDTYI[pY]GSFKVNPDC; disulfide 1-15 (inferred)) [Peptide 5C]” as the substance, how does the MG binding [2] read?
A: +++

Q: For “DRDGDGDHRKIE (synthetic genetically encoded small illuminant (GESI) malachite green (MG) binding Peptide 3)”, which MG binding [2] is on record?
A: +++

Q: Which results are given for “EAIY(P)AAPFAKKYYVQDSRA (EAI[pY]AAPFAKKYYVQDSRA) [LLT2]”?
A: Post-dephos fluorescent signal [4]: 44 relative arbitrary level; Pre-dephos fluorescent signal [4]: 575 relative arbitrary level; ΔF/F [4]: 12

Q: For “3-P (DNYIYGSFKPWEWC; synthetic genetically encoded small illuminant (GESI) malachite green (MG) binding peptide 3-P from linear library L-1)”, which MG binding [2] is on record?
A: ++

Q: Which results are given for “EAIY(P)AAPFAKKYYVYDMHI (EAI[pY]AAPFAKKYYVYDMHI) [LLT1]”?
A: Post-dephos fluorescent signal [4]: 72 relative arbitrary level; Pre-dephos fluorescent signal [4]: 939 relative arbitrary level; ΔF/F [4]: 12

Q: Which MG binding [2] does the source give for “4C (CDVYI[pY]GSFKYWPAC; disulfide 1-15 (inferred)) [Peptide 4C]” here?
A: ++++

Q: What does the source list for “CHPLLPC (not fully specified (bridges); cysteine pairing not given here; also: bead-bound) [Bead #5]”?
A: Dye binding ([1]; listed as # 5): Bromocresol; Dye binding ([1]; listed as #5): only bind to bromocresol purple; also recorded: bind only to bromocresol purple

Q: Which MG binding [2] does the source give for “DFMRQGVYDIPE (synthetic genetically encoded small illuminant (GESI) malachite green (MG) binding Peptide 5)” here?
A: ++

Q: What about the “MG binding of phosphorylated form (in words)” value [2] of the same substance?
A: bound MG

Q: With “1C (CDDYI[pY]GSFKPYIAC; disulfide 1-15 (inferred)) [Peptide 1C]” as the substance, how does the MG binding [2] read?
A: ++++

Q: What does the source list for “DILDDGDEIQGE (synthetic genetically encoded small illuminant (GESI) malachite green (MG) binding Peptide 1)”?
A: MG binding [2]: +; MG binding of phosphorylated form (in words) [2]: bound MG
